Experimental data taken from PubChem BioAssay AID1996.
Converted amounts (≈) assume the structure as drawn.

Settings: buffer; pH 7.4; 200.0 µM

solubility kinetic [µg/mL]	Structure (SMILES)
41.8 (≈ 136 µM)	O=C1NC2=C(C(=O)CCC2)C(c2ccc(OC(F)F)cc2)N1 (configuration not stated)
6.2 (≈ 19.7 µM)	COc1cc(OC)cc(C(=O)O/N=C(\N)c2cccc(C)c2)c1
12.6 (≈ 44.6 µM)	CN(C)/C=C1\SC(=S)N(c2ccc(F)cc2)C1=O
> 35.9	Cc1cccc(C(=O)NCCc2ccccc2)c1
> 40.7	Cc1nc(Cl)c(Cl)n1CCOc1ccccc1
> 50.8	Cc1ccc(C(=O)Nc2ccccc2C(=O)NCC2CCCO2)cc1 (configuration not stated)
32.7 (≈ 141 µM)	NC(Cc1ccc(OC(F)F)cc1)C(=O)O (configuration not stated)
40.2 (≈ 119 µM)	O=C(CSCc1c(F)cccc1Cl)NCCc1ccccc1
> 45.1	COc1ccc(CN2C(=O)CSC2c2ccncc2)cc1 (configuration not stated)
52.6 (≈ 144 µM)	CC(=O)N1CCN(c2ccccc2NC(=O)c2ccc(C#N)cc2F)CC1
> 42.5	COc1ccc(OCCn2c(N)nc3ccccc32)cc1
5.1 (≈ 20.5 µM)	O=C1Nc2ccccc2/C1=C\C(=O)c1ccccc1
42.3 (≈ 131 µM)	CCNC(=O)c1ccccc1-c1nc(-c2ccccc2OC)no1
> 45.8	c1ccc(CN2CCN(Cc3c[nH]c4ccccc34)CC2)cc1
15.8 (≈ 48.1 µM)	COc1ccc(OCC(=O)Nc2ccc3nc(C)sc3c2)cc1
5.7 (≈ 15.2 µM)	O=C(Nc1ccc(Cl)cc1)N1CCN(Cc2ccc3c(c2)OCO3)CC1
6.8 (≈ 22.5 µM)	O=C(Cn1c(=O)oc2ccccc21)Nc1ccccc1Cl
37.9 (≈ 107 µM)	Cc1cc(C)cc(OC(C)C(=O)Nc2ccc3c(c2)n(C)c(=O)n3C)c1 (configuration not stated)
> 43.4	Cc1ccccc1C(=O)NCC(=O)OC1CCCCC1=O (configuration not stated)
> 48.7	CC(C)CCC(C(=O)O)C(C)CC(=O)NNC(=O)c1ccco1 (configuration not stated)
> 55.4	CN(C(=O)CN1C(=O)NC2(CCCc3ccccc32)C1=O)C1CCCCC1 (configuration not stated)
> 43.4	Cc1nc(C(F)(F)F)ccc1C(=O)NN1CCOCC1
< 0.2	Cc1ccc(C(=O)O/N=C(\N)c2ccccn2)cc1Cl
> 44.6	CCOC(=O)C1CCN(S(=O)(=O)c2ccccc2)CC1

solubility kinetic [µg/mL]	Structure (SMILES)
1.7 (≈ 6.38 µM)	CNc1nc(N)c([N+](=O)[O-])c(NC2CCCCC2)n1
> 46.8	CCOC(=O)NN1C(=O)c2ccccc2NC1c1cccnc1 (configuration not stated)
3.6 (≈ 12.2 µM)	COC(=O)c1cccc(CSC(=S)N2CCCC2)c1
22.5 (≈ 78 µM)	Cc1cc(F)ccc1NC(=S)NCCc1ccccc1
0.5 (≈ 1.73 µM)	COc1ccc(-c2noc(-c3cccs3)n2)cc1OC
> 48.9	COc1cc(C(=O)Oc2cccnc2)cc(OC)c1OC.Cl
16.5 (≈ 47.1 µM)	Cc1cc(C)cc(NC(=O)CN2CCC(C(=O)c3ccccc3)CC2)c1
0.3 (≈ 0.837 µM)	COc1cccc(-c2nc(NCc3cccnc3)c3ccccc3n2)c1O
> 54.5	COC(=O)C(NC(=O)c1ccccc1C(=O)O)c1ccc2ccccc2c1 (configuration not stated)
11.5 (≈ 31.6 µM)	CC1CCCC(NC(=O)COC(=O)CCC(=O)c2ccc(F)cc2)C1C (configuration not stated)
> 38.6	CCC(=NC)C1=C(O)CC(c2ccccc2)CC1=O (configuration not stated)
> 42.1	CCCc1nc2cc3c(cc2[nH]1)n(C)c(=O)n3C.Cl
1.1 (≈ 5.91 µM)	CN(C)c1ccc(-n2cccc2)cc1
> 36.3	CCn1cc(C2CC(=O)NC2=O)c2ccccc21 (configuration not stated)
> 43.3	CC1=C(C)CC(C(=O)NCc2ccccn2)C(C(=O)O)C1 (configuration not stated)
> 46.2	Cl.OC1(CNCc2ccccc2)C2CC3CC(C2)CC1C3 (configuration not stated)
21.9 (≈ 77.8 µM)	Cc1ccccc1NC(=O)CCCC(=O)c1ccccc1
> 47	O=C(O)c1ccc(CNC(=O)c2ccc3c(c2)OCCO3)cc1
1.2 (≈ 3.56 µM)	Cc1cccc(-c2noc(CNC(=O)COc3ccccc3C)n2)c1
> 43.7	CCn1c(SCC(=O)OC)nnc1-c1ccc(C)cc1
> 34.4	O=C(Cc1ccccc1)NCCc1cnc[nH]1
31.2 (≈ 104 µM)	Cc1cccn2c(Nc3ccccc3)c(-c3ccccn3)nc12
> 49.1	COc1cc(NC(=O)/C=C/c2ccccc2)c(C(=O)O)cc1OC
> 42.3	O=C(O)CCC(NC(=S)Nc1ccccc1)C(=O)O (configuration not stated)

solubility kinetic [µg/mL]	Structure (SMILES)
9.4 (≈ 33.7 µM)	CC(=O)c1ccc(NC(=O)C2CC2c2ccccc2)cc1 (configuration not stated)
13.5 (≈ 27.8 µM)	COc1cccc(/C=C/C(=O)OCC(=O)Nc2cccc(S(=O)(=O)NC3=NCCCCC3)c2)c1
> 46.8	CC1(C2CC2)NC(=O)N(CC(=O)Nc2ccccc2C#N)C1=O (configuration not stated)
> 50.1	Cc1ccc(S(=O)(=O)NC2=NCN(CC(=O)[O-])CN2)cc1.[Na+]
0.9 (≈ 2.6 µM)	CC(C)c1ccc(NS(=O)(=O)c2ccc3c(c2)oc(=O)n3C)cc1
18.9 (≈ 68.4 µM)	CC(NC(=O)c1ccc2ccccc2n1)c1ccccc1 (configuration not stated)
> 48.4	CCN(CC)CCN1CNC(=S)N(c2ccccc2OC)C1
< 0.4	COc1ccccc1NC(=O)c1ccccc1NC(=O)c1cccs1
36.4 (≈ 111 µM)	CCOC(=O)CC(NC(=O)c1ccccc1)c1ccc(OC)cc1 (configuration not stated)
> 44.6	N#Cc1cccc(NC(=O)COC(=O)c2ccc[n+]([O-])c2)c1
2.5 (≈ 11 µM)	O=[N+]([O-])c1ccc(Cl)cc1N1CCCC1
< 0.4	CCC(=O)c1cn(CC(=O)Nc2ccc(C)cc2C)c2ccccc12
> 44.1	Cc1nn(C)c(C)c1NC(=O)COc1ccc(Cl)cc1
47.5 (≈ 144 µM)	CN1CCN(c2nc(Nc3ccccc3)nc(N)c2[N+](=O)[O-])CC1
> 41.7	O=C(CSc1nc2ccccc2o1)N1CCOCC1
3.7 (≈ 11.4 µM)	O=C(Cc1cccc2ccccc12)NCCOc1ccccc1F
49.2 (≈ 147 µM)	CCN(CC)S(=O)(=O)c1ccc(NCCc2ccccn2)nc1
> 49.5	COc1ccc(S(=O)(=O)NCCCn2ccnc2)cc1Cl
37.4 (≈ 136 µM)	Cc1ccc(NC(=O)NCCN2CCCCC2)cc1C
> 48.5	O=C(COC(=O)c1nsc(Cl)c1Cl)NC1CCCC1
5 (≈ 20.8 µM)	CCCc1nc2cc(Cl)c([N+](=O)[O-])cc2o1
> 45.8	CC1CCCCC1NC(=O)COc1ncnc2sccc12 (configuration not stated)
26.8 (≈ 96.3 µM)	COc1ccc(CN2CCCN(C)CC2)c(OC)c1C
41.3	Cc1ccc(OCC(O)CNC2CCCC2)c(C)c1.Cl (configuration not stated)

solubility kinetic [µg/mL]	Structure (SMILES)
> 45.5	CN(CC(=O)NC(=O)NC1CCCCC1)Cc1ccccc1
> 51.7	CC(C)C(=O)Nc1nnc(SCC(=O)NCC2CCCO2)s1 (configuration not stated)
> 34.2	Cc1ccc(-n2c(C)nn(CC#N)c2=O)cc1
> 50.2	COC(=O)c1ccc(CN2CCN(CC(C)C)C(CCO)C2)cc1 (configuration not stated)
> 47.2	CC1CCC(NC(=O)CN(C)S(=O)(=O)c2cnc[nH]2)CC1 (configuration not stated)
9.8 (≈ 29.9 µM)	COc1cccc(N2CN(CCc3ccccc3)CNC2=S)c1
< 0.2	NS(=O)(=O)c1ccc(Nc2nc(-c3cccnc3)cs2)cc1
> 42	Cc1cc([N+](=O)[O-])nn1CC(=O)N(C)C1CCCCC1
> 39.3	COc1ccc(NC(=O)c2cc(C)no2)cc1OC
> 48.7	CC(C(c1cccs1)c1c(N)n(C)c(=O)n(C)c1=O)[N+](=O)[O-] (configuration not stated)
0.4 (≈ 1.23 µM)	CC(NC(=S)N1CCN(c2ccccc2)CC1)c1ccccc1 (configuration not stated)
3.1 (≈ 10.8 µM)	Cc1cc(-c2csc3nc[nH]c(=S)c23)cc(C)c1C
1.2 (≈ 3.84 µM)	Cc1nc([N+](=O)[O-])cn1CC(=O)Nc1ccc(F)c(Cl)c1
12 (≈ 30.7 µM)	CCOc1ncccc1C(=O)Nc1cccc(S(=O)(=O)N2CCOCC2)c1
6.2 (≈ 19.7 µM)	Cc1cc(C(=O)COc2cccc([N+](=O)[O-])c2)c(C)n1C1CC1
> 41.2	O=C(CCC(=O)c1cccs1)NCc1ccncc1
> 50.8	COc1ccc(CNC(=O)CSc2cccc3cccnc23)cc1
> 48.1	CCCCn1c(N)c(N(CC)C(=O)c2ccco2)c(=O)[nH]c1=O
8.6 (≈ 28.2 µM)	CCCc1cc(C(=O)Nc2cc(OC)ccc2OC)cs1
> 47.2	CCOC(=O)/C=C1\SCC(=O)N1CC(=O)N1CCOCC1
8.9 (≈ 41 µM)	COn1c(C)c(C)c2c3nonc3ccc21
> 47.7	O=C(COC(=O)c1ccc([N+](=O)[O-])o1)NCCc1ccccc1
> 41.3	Cc1ccnc(NC(=O)CNC(=O)c2cccs2)c1
> 53.3	O=C(CSc1nc2ccccc2o1)N/N=C/c1ccc(C(=O)O)cc1

solubility kinetic [µg/mL]	Structure (SMILES)
37.2 (≈ 130 µM)	O=C(Cc1ccc(Cl)cc1)N1CCc2ccccc2C1
< 0.2	Cc1ccc(C)c2nc(Cl)c(C#N)cc12
44.2 (≈ 140 µM)	Cc1ccccc1N1CCN(CC(=O)Nc2nccs2)CC1
< 0.3	Cc1cc(Cl)ccc1OCC(=O)NC(=S)Nc1ccc(Cl)cn1
0.4 (≈ 1.21 µM)	COc1ccccc1/C=C/C1NC(=O)NC(C)=C1C(=O)OC(C)C (configuration not stated)
1.4 (≈ 4.48 µM)	Cc1ccc(N2CCN(c3ncccc3[N+](=O)[O-])CC2)c(C)c1
> 39.4	O=C1CCN(C(=S)NCCc2ccccc2)CC1
1.9 (≈ 5.45 µM)	O=C(NCc1ccco1)c1ccc(S(=O)(=O)N2CCCCC2)cc1
> 36	Nc1ccc(S(=O)(=O)C(F)(F)F)cc1N
9.8 (≈ 29 µM)	CCOc1ccc(N2CC(C(=O)NCc3ccccc3)CC2=O)cc1 (configuration not stated)
1.4 (≈ 4.45 µM)	Cc1cc(NC(=O)CSc2nc3c(cc2C#N)CCC3)no1
> 48.5	OCCCNC(=S)Nc1ccc(Br)cc1Cl
> 48.7	N#Cc1c(SCC(N)=O)nc2c(c1-c1ccncc1)CCCC2
< 0.6	CCOc1ccc(S(=O)(=O)NC2CCCCCC2)cc1
> 45.8	COc1ccccc1C(=O)NS(=O)(=O)c1ccc(C)cc1
> 42.8	COc1ccc(CN2CCS(=O)(=O)CC2)cc1OC
5.7 (≈ 16.5 µM)	CCOC(=O)c1cnc2c(F)ccc(F)c2c1Sc1ccccc1
0.9 (≈ 2.78 µM)	O=C(Nc1ccccc1C(=O)Nc1ccc(F)cc1)c1ccco1
24.7 (≈ 96.7 µM)	COc1ccccc1CNC(=O)Cc1ccccc1
32.6 (≈ 121 µM)	Cc1ccccc1NC(=O)C1COc2ccccc2O1 (configuration not stated)
1.1 (≈ 3.74 µM)	c1csc(-c2cc(N3CCCCC3)c3ccccc3n2)c1
> 42.8	CN1CCN(Cc2cccc3ncccc23)CC1CCO (configuration not stated)
40.4 (≈ 120 µM)	C=CCON/C(CCC)=C1\C(=O)C(C(=O)OC)C(C)(C)CC1=NC (configuration not stated)

Structure (SMILES)	solubility kinetic [µg/mL]
CN/C=C(/Cl)P(=O)(OC(C)C)OC(C)C	> 38.4
c1ccc(CC(NCc2ccco2)c2ccccc2)cc1 (configuration not stated)	13.6 (≈ 49 µM)
CC(=O)c1ccc(NC(=O)N2C[C@H]3C[C@@H](C2)c2cccc(=O)n2C3)cc1	> 52.7
